Our source for the melting point values is a melting point compilation (Tetko et al.; mined from patent text by program, amines drawn as free bases though some values may be those of a salt).

Some results are limits rather than exact numbers.

`CCOC(=O)c1ccc(O)cc1SC` came in with a melting point of 132 to 136 °C.

For `C=C[Si]12OC3CC(CC(C3)O1)O2`, the melting point came out at 116 °C.

Consider `COc1ccc(Cl)cc1C(=O)NCCc1ccc(-c2ccc(Cl)cc2)c(S(N)(=O)=O)c1`, for which the melting point came to 185 °C.

The molecule `COc1ccc(COc2cccc(C=O)c2OCc2ccc(OC)cc2)cc1` yielded a melting point of 92 to 93 °C.

With `COCC(C)(Oc1ccc(CC(=O)Nc2cc(C)cc(C)c2)cc1)C(=O)O` (configuration not stated), the melting point was in the range of 170 to 172 °C.

As to `CCOC(=O)c1csc(C#Cc2ccc(OC)c(C34CC5CC(CC(C5)C3)C4)c2)c1`, the melting point was 88 to 90 °C.

In turn, `CC(C)[C@]1(CCc2ccsc2)CC(O)=CC(=O)O1` gave a melting point of 117 to 123 °C.

`CN1CCc2c(sc(N)c2C(=O)c2ccccc2)C1` registered a melting point of 164 to 165 °C.

In the case of `COC(=O)c1ccc(CNC(C)=O)cc1S(N)(=O)=O`, the melting point was 173 to 175 °C.

With `Cn1cc(-c2ccc(C34CCCN(CC3)C4)cn2)cn1` (racemic), the melting point fell in the range of 138 to 140 °C.

`Oc1ccc(CC2CC2(Cl)Cl)cc1` (configuration not stated): the melting point lay in the range of 57 to 62 °C.

Turning to `FC(F)(F)c1ccc2c(c1)NC(=S)c1ccccc1S2`, the melting point is 232 to 233 °C.

The molecule `N#CC1Sc2ccccc2N1C(=O)c1ccc(Cl)cc1` (configuration not stated) showed a melting point of 115 to 117 °C.

Molecule `NC(=O)CCCSc1cccc(NC(N)=NCC(F)(F)F)n1` had a melting point of 138 to 141 °C.

In turn, `COc1ccc2nc3ccc(OC)cc3c(C(=O)Oc3c(Br)cccc3Br)c2c1` displayed a melting point of 245 to 247 °C.

As for `O=C(CC1CCCC1=O)c1ccc(Br)cc1` (configuration not stated), the melting point lay in the range of 59 to 61 °C.

The molecule `CSc1nc(CCC(F)(F)F)nc2sc(C)cc12` returned a melting point of 81 to 83 °C.

Molecule `CCOC(=O)c1cnn2c1c(O)nc1c(C)nn(C)c12` registered a melting point of 246 to 247 °C.

For the molecule `O=C(Nc1cccc(Br)c1)Nc1cc(NC(=O)Nc2cccc(Br)c2)cc(C(=O)O)c1`, the melting point is above 300 °C.

Molecule `O=C(O)c1cccc(-c2cc3ccc(Cl)cc3[nH]c2=O)c1` displayed a melting point above 330 °C.

`CS(=O)(=O)Nc1ccc(C=C2CCOC2=O)cc1Oc1ccc(F)cc1F` came in with a melting point of 179 to 180 °C.

`CCOC(=O)C1=C(C)Nc2nc(N3CCOCC3)nc(N3CCOCC3)c2C1c1cccc([N+](=O)[O-])c1` (configuration not stated) showed a melting point of 190 °C.

In the case of `CC1C(=O)CC(C)C(C#N)C1=O` (configuration not stated), the melting point fell in the range of 178 to 179 °C.

Turning to `CC1(C)Oc2ccccc2-n2cccc21`, the melting point was 38 °C.

As for `Cc1c(CCCCCC(=O)O)cccc1C(=O)c1ccc(Cl)cc1`, the melting point worked out at 82 °C.

Take `O=C(Nc1ccccc1)C1CCc2c(cnc3[nH]ncc23)C1` (configuration not stated): the melting point was above 300 °C.

`COc1cc(OC)nc(NC(=O)NS(=O)(=O)c2c(Cl)cccc2CN2CCOC2=O)n1` displayed a melting point of 135 to 136 °C.

Take `OCc1csc(CN2CCCC2)c1`: the melting point lay within 111 to 112 °C.

The molecule `Cc1c(C)c(N2CCN(C(=O)OC(C)(C)C)CC2)c(C)c2c1OC(C)(C)C2N1CCCCC1` (configuration not stated) yielded a melting point of 167 to 168 °C.

The molecule `Cc1nc(-n2cc(C(=O)NCc3ccc(F)cc3)nn2)sc1C(=O)NCc1ccccc1` came in with a melting point of 198 to 201 °C.

With `CCc1cccc(CC)c1NC(=S)NC(C)C`, the melting point was in the range of 108 to 110 °C.

`COc1ccc(Oc2ccccc2)c(NS(=O)(=O)C(F)(F)F)c1` registered a melting point of 57 to 58 °C.

The molecule `COC(=O)c1ccc2c(c1)c(Cc1ccc(C(=O)Cl)cc1OC)cn2C` came in with a melting point of 147 to 149 °C.

In the case of `CCCCOc1cc(C(=O)O)n(Cc2ccc(C(F)(F)F)cc2Cl)n1`, the melting point is 158 to 160 °C.

With `c1cc(-c2cc3nccnc3[nH]2)cc(C2OCCCO2)c1`, the melting point fell in the range of 205 to 206 °C.

`CCNC(=S)Nc1ccc(NNC(C)=O)cc1` displayed a melting point of 191 to 193 °C.

Molecule `O=C(NCCO)C1=CNc2cccnc2S1` returned a melting point of 192 to 195 °C.

The molecule `COC(=O)CCc1cc(=O)n2nc(C)nc2[nH]1` had a melting point of 222 to 225 °C.

On to `CCOC(=O)C1CNc2cc(-c3ccccc3)ccc2O1` (configuration not stated), for which the melting point is 141 to 145 °C.

`Clc1ccc(COc2ccc(-c3nc(COc4ccc(CCCn5ccnc5)cc4)co3)cc2)cc1` registered a melting point of 151 to 152 °C.

Molecule `CC(C)(SCc1ccccn1)C(NS(=O)(=O)c1ccc(Oc2ccc(-c3ccoc3)cc2)cc1)C(=O)O` (configuration not stated) showed a melting point of 185 to 189 °C.

Molecule `CCCCNC(=O)c1ccco1` displayed a melting point of 43.8 °C.

Turning to `COC(=O)c1ccc2oc3c(c(=O)c2c1)CCC3=Cc1ccc(C)cc1C`, the melting point was 212 to 214 °C.

On to `CCOc1ccc(C(c2ccc(C(C)(C)C)cc2)C(C)Cl)cc1` (configuration not stated), for which the melting point was 74 to 75 °C.

The molecule `CCCCCCCCCCCCc1c2c(=O)c3cc(Br)ccc3c2c(CCCCCCCCCCCC)c2c(=O)c3cc(Br)ccc3c12` returned a melting point of 122 to 123 °C.

For `CCCc1cc(=O)n2cccc(C)c2n1`, the melting point lay within 59 to 60 °C.

For `Cc1nc(O)cc(C(F)(F)F)n1`, the melting point is 141 to 143 °C.

As to `Cc1nn(C)c2cc(-c3ccc(F)cc3)nc(-c3ccc(S(C)(=O)=O)cc3)c12`, the melting point was 228 to 230 °C.

For `CN1Cc2c(C#N)ncn2-c2ccc(F)c(Cl)c2C1=O`, the melting point lay in the range of 221 to 223 °C.

`CCOC(=O)c1cn(-c2ccc(F)cn2)c2nc(N3CC(C)NC(C)C3)c(F)cc2c1=O` (configuration not stated) came in with a melting point of 165 °C.

Molecule `CCSc1cc(C(=O)O)cc(N)c1Oc1ccccc1` returned a melting point of 154 to 155 °C.

`CCCCCc1nc2ccc(C(=O)O)cc2c(=O)o1` came in with a melting point of 185 to 190 °C.

The molecule `CCc1ccc2c(CC(=O)O)c(C(=O)c3cc(C)ccn3)[nH]c2c1` showed a melting point of 204 to 207 °C.

Regarding `CCOC(=O)c1cc2c(C)cccc2n1CCNC(=O)OC(C)(C)C`, the melting point is 93 to 94 °C.

`CC(CC(=O)O)C(=O)c1ccc(F)cc1` (configuration not stated) gave a melting point of 75 to 78 °C.

`O=C(CCl)Nc1cccc2[nH]ccc12` yielded a melting point of 114 to 116 °C.

Molecule `CCCC(=O)Oc1ccc2[nH]c(=O)c(-c3nnn(Cc4cccc(OCc5ccc6ccccc6n5)c4)n3)cc2c1` registered a melting point of 200 to 202 °C.

With `Cc1nc(NC(=O)Nc2cccc3c2C2CCCCN2C3=O)cs1` (configuration not stated), the melting point is 146 °C.

For `O=C(O)C1C=CCN2C(=O)C(CCS)(Cc3ccccc3)C(=O)N12` (configuration not stated), the melting point is 151 to 154 °C.

`Cc1cc(C#Cc2ccccc2)nc(Oc2cc(C(F)(F)F)nn2C)c1` showed a melting point of 56 °C.

Take `COc1ccccc1N(CC(=O)OC(C)(C)C)C(=O)CN1C(=O)c2ccccc2C1=O`: the melting point was determined as 144 °C.

Regarding `CC(=O)Nc1ccc(Br)c2c1CCCC2`, the melting point was 185 to 189 °C.

The molecule `CCC(Nc1cc(C)nc(Oc2c(C)cc(C)cc2C)c1C(=O)OC)C(C)O` (configuration not stated) showed a melting point of 116 to 120 °C.

In turn, `N#CCOc1nsc2ccc([N+](=O)[O-])cc12` gave a melting point of 123 to 124 °C.

`CCN1CCN(CC/C=C/c2cc3ncc(C#N)c(Nc4cc(OC)c(Cl)cc4Cl)c3cc2OC)CC1` yielded a melting point of 129 to 131 °C.

Turning to `O=C(O)c1cc(O)cc2cc(-c3ccc(O)cc3)oc12`, the melting point lay in the range of 260 to 262 °C.

The molecule `NC(=O)Cn1c(-c2cccc(Cl)c2)nc2cccnc21` yielded a melting point of 245 to 247 °C.

Consider `CC(=O)N1CCC(NC(=O)N(CCCN2CCC(Cc3ccccc3)CC2)c2ccccc2)CC1`, for which the melting point lay within 132 to 135 °C.

`CN(C)C(=O)N(C)c1cc(C(C)(C)C)on1` had a melting point of 90 to 91 °C.

Consider `CC(C)(C)OC(=O)N1CCN(c2cccc3cc(N)cnc23)CC1`, for which the melting point lay within 168 to 173 °C.

As to `CCOC(=O)c1cc(CC#N)c(C)s1`, the melting point fell in the range of 55 to 57 °C.

For `Cn1cc(S(C)(=O)=O)c(=O)c2ccc(C(C)(C)C)cc21`, the melting point lay within 247 to 248 °C.

For `N#Cc1ccc(C(=O)N[C@H]2CC[C@H](CCN3CCN(c4nccc5c4CCO5)CC3)CC2)cc1`, the melting point was 244 °C.

`O=C(OC1CCCC1)c1cc([N+](=O)[O-])c(F)cc1Cl`: the melting point lay in the range of 44 to 45 °C.

The molecule `CC(CCC(=O)O)C1CCC2C3CCC4CC(OC=O)CCC4(C)C3CC(OC=O)C12C` (configuration not stated) yielded a melting point of 123 to 125 °C.

For `Cc1cc2c([nH]1)CC(c1ccccc1)CC2=O` (configuration not stated), the melting point fell in the range of 203 to 205 °C.

`CC(=O)OC(C)c1ccc(Cl)c2nc3n(c12)CCCN3c1ccc(Cl)cc1Cl` (configuration not stated): the melting point was 204 to 206 °C.

Regarding `CCOC(=O)Cc1ccc(C(=O)c2ccccc2)cc1N`, the melting point lay within 150 to 152 °C.

The molecule `CCc1ccc(OC)c(-c2csc(NC(=O)c3ccc(C(=O)NCCN4CCCC4)cc3)n2)c1` yielded a melting point of 170 °C.

Turning to `COc1ccccc1NC(=O)CCCC(C)=O`, the melting point was in the range of 101 to 102 °C.

The molecule `CN1C(C(=O)Nc2nc3c(s2)CCCC3)=C(O)c2ccc3ccccc3c2S1(=O)=O` registered a melting point of 255 to 257 °C.

As for `CC(C)(C)NS(=O)(=O)c1cc(C(=O)Cl)ccc1Cl`, the melting point came out at 97 °C.

In the case of `CC(NC(Nc1ccc(Cl)cc1)=C(C#N)S(C)(=O)=O)C(C)(C)C` (configuration not stated), the melting point was in the range of 160 to 162 °C.

On to `N#Cc1cc2c(nc1NC1CCCCC1)CCCC2=O`, for which the melting point lay within 143 to 145 °C.

`Cc1nc(-c2ccc(C(F)(F)F)cc2)sc1CN(C)c1ccc(OCC(=O)O)c(I)c1` registered a melting point of 172 to 173 °C.

As for `COc1ccc(COC(=O)N[C@@H](CC(N)=O)C(=O)N[C@@H](Cc2ccccc2)[C@H](O)C(=O)N2CCC[C@H]2C(=O)NC(C)(C)C)cc1`, the melting point is 95 to 97 °C.

`COCCN1CCN(CCCOc2ccc3nc(C#N)nc(NCC(C)(C)C)c3c2)CC1` came in with a melting point of 92 to 94 °C.

Turning to `COC(=O)c1cccc(C(=O)c2ccc(O)c(OC)c2)c1`, the melting point is 133 to 134 °C.

Take `CCOc1cc2ncc(C#N)c(Nc3ccc(F)c(Cl)c3)c2cc1OCC`: the melting point lay within 194 to 198 °C.

`CC(=O)Nc1nnc(SCC(O)(Cn2cncn2)c2ccc(Cl)cc2Cl)s1` (configuration not stated) yielded a melting point of 132 °C.

`CCCCNC(=O)Cc1ccccc1` showed a melting point of 56 to 57 °C.

In turn, `Cn1c(=O)c(=O)[nH]c2cc(C(F)(F)F)ccc21` had a melting point of 255 °C.
